Data as given in PubChem BioAssay AID2060891 (Molecular Pharmacology Branch, DTP, NCI, 2025).
pIC50: −log10 of the molar value.

Tested on: K98450-129-R-PDC complex spheroid growth, percent test/control
Test: Anticancer human tumor K98450-129-R-PDC patient-derived colon adenocarcinoma cell line growth inhibition [RAS]
Details: for pIC50: curve of first compound; for viability, T/C: stronger effect = lower value
In short: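 Agents were tested in combination matrices in half-log decrements from a top concentration at or near clinical Cmax (10 microM if undetermined). Targets were multi-cell spheroids of tumour lines plus HUVEC and MSC stromal cells.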
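Also: spheroids exposed to agents for seven days before the viability readout.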
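For viability, T/C in this document: luminescence used as a proxy for viable cell amount.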

pIC50 (second compound 0.000949 µM): 6.72
pIC50 (second compound 0.003 µM): 7.37
pIC50 (second compound 0.00949 µM): > 7.50
pIC50 (second compound 0.03 µM): > 7.50
pIC50 (second compound 0.0949 µM): > 7.50
pIC50 (second compound 0.3 µM): > 7.50
Structure (SMILES): CC(=O)OC12COC1CC(O)C1(C)C(=O)C(O)C3=C(C)C(OC(=O)C(O)C(NC(=O)OC(C)(C)C)c4ccccc4)CC(O)(C(OC(=O)c4ccccc4)C21)C3(C)C (configuration not stated) + CCn1c(-c2cccnc2C(C)OC)c2c3cc(ccc31)N1CCOC(CC(NC(=O)C(C(C)C)N(C)C(=O)C3(F)CCN(C(=O)C#CC(C)(C)N(C)C)CC3)C(=O)N3CCCC(N3)C(=O)OCC(C)(C)C2)C1
viability, T/C (second compound 0.000949 µM, first compound 0.0316 µM): 69.7%
viability, T/C (second compound 0.000949 µM, first compound 0.1 µM): 66.1%
viability, T/C (second compound 0.000949 µM, first compound 0.316 µM): 37.2%
viability, T/C (second compound 0.000949 µM, first compound 1 µM): 24.6%
viability, T/C (second compound 0.000949 µM, first compound 3.16 µM): 25.8%
viability, T/C (second compound 0.000949 µM, first compound 10 µM): 24.8%
viability, T/C (second compound 0.003 µM, first compound 0.0316 µM): 52.4%
viability, T/C (second compound 0.003 µM, first compound 0.1 µM): 43.6%
viability, T/C (second compound 0.003 µM, first compound 0.316 µM): 23.8%
viability, T/C (second compound 0.003 µM, first compound 1 µM): 19.7%
viability, T/C (second compound 0.003 µM, first compound 3.16 µM): 21.4%
viability, T/C (second compound 0.003 µM, first compound 10 µM): 20.1%
viability, T/C (second compound 0.00949 µM, first compound 0.0316 µM): 40.6%
viability, T/C (second compound 0.00949 µM, first compound 0.1 µM): 25.5%
viability, T/C (second compound 0.00949 µM, first compound 0.316 µM): 19.9%
viability, T/C (second compound 0.00949 µM, first compound 1 µM): 18.7%
viability, T/C (second compound 0.00949 µM, first compound 3.16 µM): 19.5%
viability, T/C (second compound 0.00949 µM, first compound 10 µM): 18.1%
viability, T/C (second compound 0.03 µM, first compound 0.0316 µM): 30.9%
viability, T/C (second compound 0.03 µM, first compound 0.1 µM): 28.2%
viability, T/C (second compound 0.03 µM, first compound 0.316 µM): 19.2%
viability, T/C (second compound 0.03 µM, first compound 1 µM): 17.7%
viability, T/C (second compound 0.03 µM, first compound 3.16 µM): 19.7%
viability, T/C (second compound 0.03 µM, first compound 10 µM): 20.4%
viability, T/C (second compound 0.0949 µM, first compound 0.0316 µM): 29.6%
viability, T/C (second compound 0.0949 µM, first compound 0.1 µM): 26.9%
viability, T/C (second compound 0.0949 µM, first compound 0.316 µM): 18.9%
viability, T/C (second compound 0.0949 µM, first compound 1 µM): 19%
viability, T/C (second compound 0.0949 µM, first compound 3.16 µM): 18.8%
viability, T/C (second compound 0.0949 µM, first compound 10 µM): 18.4%
viability, T/C (second compound 0.3 µM, first compound 0.0316 µM): 29.5%
viability, T/C (second compound 0.3 µM, first compound 0.1 µM): 22.7%
viability, T/C (second compound 0.3 µM, first compound 0.316 µM): 19.1%
viability, T/C (second compound 0.3 µM, first compound 1 µM): 16.3%
viability, T/C (second compound 0.3 µM, first compound 3.16 µM): 16.9%
viability, T/C (second compound 0.3 µM, first compound 10 µM): 18.6%
